# What was measured:
# [1] = tested on: Botryotinia fuckeliana (Botrytis cinerea); assay: Botryotinia fuckeliana (Botrytis cinerea)/Liquid Culture (Gray Mould); type: cell-based; conditions: liquid culture, growth inhibition photometrically 3-4 days after application, compared to untreated control
# Description: Biological Examples Botryotinia fuckeliana (Botrytis cinerea)/Liquid Culture (Gray Mould)
# (§1) Conidia of the fungus from cryogenic storage are directly mixed into nutrient broth (Vogels broth). After placing a (DMSO) solution of test compound into a microtiter plate (96-well format), the nutrient broth containing the fungal spores is added. The test plates are incubated at 24° C. and the inhibition of growth is determined photometrically 3-4 days after application.
# [2] = tested on: Magnaporthe grisea (Pyricularia oryzae); assay: microbe, parasite or virus in culture; type: cell-based; conditions: read-out: control of Magnaporthe grisea
# [3] = tested on: Monographella nivalis (Microdochium nivale); assay: Monographella Nivalis (Microdochium Nivale)/Liquid Culture (Foot Rot Cereals); type: cell-based; conditions: liquid culture, growth inhibition photometrically 4-5 days after application, compared to untreated control
# Description: Monographella Nivalis (Microdochium Nivale)/Liquid Culture (Foot Rot Cereals)
# as §1, with “(PDB potato dextrose” for “(Vogels”, “4-5” for “3-4”
# Fusarium culmorum = assay: microbe, parasite or virus in culture; type: cell-based; conditions: read-out: control of Fusarium culmorum
# [4] = tested on: Glomerella lagenarium (Colletotrichum lagenarium); assay: Glomerella Lagenarium (Colletotrichum Lagenarium)/Liquid Culture (Anthracnose); type: cell-based; conditions: Colletotrichum orbiculare, liquid culture, growth inhibition photometrically 3-4 days after application, compared to untreated control
# Description: Glomerella Lagenarium (Colletotrichum Lagenarium)/Liquid Culture (Anthracnose)
# as §1, with “(PDB potato dextrose” for “(Vogels”, “measured” for “determined”
# Sclerotinia sclerotiorum = assay: Sclerotinia sclerotiorum/Liquid Culture (Cottony Rot); type: cell-based; conditions: liquid culture, growth inhibition photometrically 3-4 days after application, compared to untreated control
# Description: Sclerotinia sclerotiorum/Liquid Culture (Cottony Rot)
# as §1, with “Mycelia fragments of a newly grown liquid culture” for “Conidia”, “fungus” for “fungus from cryogenic storage”, “format)” for “format),”, “material” for “spores”
# [5] = tested on: Mycosphaerella graminicola (Septoria tritici); assay: microbe, parasite or virus in culture; type: cell-based; conditions: Zymoseptoria tritici, read-out: control of Mycosphaerella graminicola
# Gaeumannomyces graminis = assay: Gaeumannomyces Graminis/Liquid Culture (Take-all of Cereals); type: cell-based; conditions: liquid culture, growth inhibition photometrically 4-5 days after application, compared to untreated control
# Description: Gaeumannomyces Graminis/Liquid Culture (Take-all of Cereals)
# as §1, with “Mycelial fragments of” for “Conidia of”, “storage were” for “storage are”, “broth (PDB potato dextrose” for “broth (Vogels”, “photometrically 4-5” for “photometrically 3-4”
SMILES,inhibition of growth at 20 ppm [1],inhibition of growth at 20 ppm [2],melting point,inhibition of growth at 20 ppm [3],inhibition of growth at 20 ppm (Fusarium culmorum),inhibition of growth at 20 ppm [4],inhibition of growth at 20 ppm (Sclerotinia sclerotiorum),inhibition of growth at 20 ppm [5],inhibition of growth at 20 ppm (Gaeumannomyces graminis)
"Cn1nc2cc(F)ccc2c1C1=NC(C)(C)C(C)(C)c2c(F)cccc21 [Compound E-21, 5-fluoro-1-(6-fluoro-2-methyl-indazol-3-yl)-3,3,4,4-tetramethyl-isoquinoline]",≥ 80%,≥ 80%,131 to 133 °C,≥ 80%,≥ 80%,≥ 80%,–,–,–
Cn1nc2ccccc2c1C1=NC(C)(C)C(Br)c2ccccc21 (stereo not drawn),–,–,165 to 166 °C,–,–,–,–,–,–
"Cn1nc2c(Br)cccc2c1C1=NC(C)(C)C(C)(C)c2c(F)cccc21 [Compound E-8, 1-(7-bromo-2-methyl-indazol-3-yl)-5-fluoro-3,3,4,4-tetramethyl-isoquinoline]",≥ 80%,≥ 80%,–,≥ 80%,–,≥ 80%,≥ 80%,≥ 80%,–
"Cc1ccc2c(C3=NC(C)(C)C(=O)c4ccccc43)n(C)nc2c1C [Compound E-29, 3,3-dimethyl-1-(2,6,7-trimethylindazol-3-yl)isoquinolin-4-one]",≥ 80%,≥ 80%,174 to 177 °C,≥ 80%,≥ 80%,≥ 80%,≥ 80%,–,–
"Cc1cccc2c(C3=NC(C)(C)C(F)(F)c4ccccc43)n(C)nc12 [Compound E-11, 1-(2,7-dimethylindazol-3-yl)-4,4-difluoro-3,3-dimethyl-isoquinoline]",≥ 80%,≥ 80%,136 to 137 °C,≥ 80%,≥ 80%,≥ 80%,≥ 80%,–,–
"CC1(C)N=C(c2onc3c(Cl)cccc23)c2ccccc2C1(F)F [Compound E-31, 7-chloro-3-(4,4-difluoro-3,3-dimethyl-1-isoquinolyl)-2,1-benzoxazole]",≥ 80%,≥ 80%,–,–,–,≥ 80%,≥ 80%,–,≥ 80%
"Cc1c(Cl)ccc2c(C3=NC(C)(C)C(C)(C)c4c(F)cccc43)n(C)nc12 [Compound E-26, 1-(6-chloro-2,7-dimethyl-indazol-3-yl)-5-fluoro-3,3,4,4-tetramethyl-isoquinoline]",≥ 80%,≥ 80%,136 to 142 °C,≥ 80%,–,≥ 80%,≥ 80%,–,–
"Cn1nc2c(Br)cccc2c1C1=NC(C)(C)C(Br)c2ccccc21 (stereo not drawn) [Compound E-7, 4-bromo-1-(7-bromo-2-methyl-indazol-3-yl)-3,3-dimethyl-4H-isoquinoline]",≥ 80%,–,–,–,–,–,–,–,–
Cn1nc2c(Br)cccc2c1C1=NC(C)(C)C(O)c2ccccc21 (stereo not drawn),–,–,215 to 217 °C,–,–,–,–,–,–
"Cn1nc2c(Br)cccc2c1C1=NC(C)(C)C(=O)c2ccccc21 [Compound E-6, 1-(7-bromo-2-methyl-indazol-3-yl)-3,3-dimethyl-isoquinolin-4-one]",≥ 80%,≥ 80%,–,≥ 80%,–,–,–,–,–
"CC1(C)N=C(c2n[nH]c3ccccc23)c2cccc(F)c2C1(C)C [Compound E-14, 5-fluoro-1-(1H-indazol-3-yl)-3,3,4,4-tetramethyl-isoquinoline]",≥ 80%,–,174 to 177 °C,–,–,–,–,–,–
"Cn1nc2c(Br)cccc2c1C1=NC(C)(C)C(F)(F)c2ccccc21 [Compound E-10, 1-(7-bromo-2-methyl-indazol-3-yl)-4,4-difluoro-3,3-dimethyl-isoquinoline]",≥ 80%,≥ 80%,157 to 158 °C,≥ 80%,–,≥ 80%,≥ 80%,–,≥ 80%
"Cn1nc2ccccc2c1C1=NC(C)(C)C(F)(F)c2ccccc21 [Compound E-13, 4,4-difluoro-3,3-dimethyl-1-(2-methylindazol-3-yl)isoquinoline]",≥ 80%,≥ 80%,–,≥ 80%,–,≥ 80%,≥ 80%,–,–
"Cn1nc2c(Br)cccc2c1C1=NC(C)(C)C(=O)c2c(F)cccc21 [Compound E-18, 1-(7-bromo-2-methyl-indazol-3-yl)-5-fluoro-3,3-dimethyl-isoquinolin-4-one]",–,–,260 to 261 °C,≥ 80%,–,–,–,–,–
"Cn1nc2c(Cl)c(Cl)ccc2c1C1=NC(C)(C)Cc2ccccc21 [Compound E-24, 1-(6,7-dichloro-2-methyl-indazol-3-yl)-3,3-dimethyl-4H-isoquinoline]",≥ 80%,–,197 to 199 °C,–,–,–,–,–,–
"Cn1nc2c(Br)cccc2c1C1=NC(C)(C)Cc2c(F)cccc21 [Compound E-15, 1-(7-bromo-2-methyl-indazol-3-yl)-5-fluoro-3,3-dimethyl-4H-isoquinoline]",≥ 80%,≥ 80%,168 to 169 °C,≥ 80%,–,–,–,–,–
Cn1nc2ccccc2c1C1=NC(C)(C)C(=O)c2ccccc21,–,–,169 to 170 °C,–,–,–,–,–,–
"Cc1ccc2c(C3=NC(C)(C)C(F)(F)c4ccccc43)n(C)nc2c1C [Compound E-25, 4,4-difluoro-3,3-dimethyl-1-(2,6,7-trimethylindazol-3-yl)isoquinoline]",≥ 80%,≥ 80%,154 to 157 °C,≥ 80%,≥ 80%,≥ 80%,≥ 80%,–,–
Cn1nc2c(Br)cccc2c1C1=NC(C)(C)C(O)c2c(F)cccc21 (stereo not drawn),–,–,103 to 105 °C,–,–,–,–,–,–
"Cc1cccc2c(C3=NC(C)(C)C(C)(C)c4c(F)cccc43)snc12 [Compound E-32, 3-(5-fluoro-3,3,4,4-tetramethyl-1-isoquinolyl)-7-methyl-2,1-benzothiazole]",≥ 80%,≥ 80%,96 to 98 °C,≥ 80%,≥ 80%,≥ 80%,≥ 80%,–,≥ 80%
"Cc1cccc2c(C3=NC(C)(C)C(F)(F)c4c(F)cccc43)n(C)nc12 [Compound E-20, 1-(2,7-dimethylindazol-3-yl)-4,4,5-trifluoro-3,3-dimethyl-isoquinoline]",≥ 80%,≥ 80%,164 to 165 °C,≥ 80%,–,≥ 80%,–,–,≥ 80%
"Cn1nc2c(Br)cccc2c1C1=NC(C)(C)Cc2ccccc21 [Compound E-5, 1-(7-bromo-2-methyl-indazol-3-yl)-3,3-dimethyl-4H-isoquinoline]",≥ 80%,≥ 80%,161 to 162 °C,≥ 80%,–,–,≥ 80%,≥ 80%,–
"Cn1nc2c(Br)cccc2c1C1=NC(C)(C)C(F)(F)c2c(F)cccc21 [Compound E-19, 1-(7-bromo-2-methyl-indazol-3-yl)-4,4,5-trifluoro-3,3-dimethyl-isoquinoline]",≥ 80%,≥ 80%,198 to 199 °C,≥ 80%,–,≥ 80%,–,–,–
"Cn1nc2ccccc2c1C1=NC(C)(C)Cc2ccccc21 [Compound E-2, 3,3-dimethyl-1-(2-methylindazol-3-yl)-4H-isoquinoline]",≥ 80%,≥ 80%,107 to 108 °C,≥ 80%,–,≥ 80%,≥ 80%,–,–

# From patent publication US10329272B2 (priority 2015, dated 2019)
